Data set [1] relates to BaF3 FGFR2-BICC1 V564F cells. The experiment in a line: CellTiter-Glo cell proliferation inhibition, BaF3 FGFR2-BICC1 V564F. It is filed as cell-based. The following applies: Mus musculus, 72 h, read-out: BaF3 FGFR2-BICC1 V564F inhibitory activity IC50. As for the experimental part: To evaluate inhibitory effects of the compounds on the proliferation of NCI-H716, SNU-16 and BaF3-FGFR2-BICC1 V564F cells by cell proliferation inhibition experiments.
CellTiter-Glo method was used to detect inhibitory effects of the compounds on the proliferation of NCI-H716, SNU-16 and BaF3 FGFR2-BICC1 V564F cells. The highest detection concentration of the compounds was 1000 nM, which was diluted in 3 folds, with a total of 9 concentrations (1000 nM to 0.15 nM). After the cells were plated at an appropriate density, compounds were added the next day and incubated for 72 h before detection using the […] detection kit.
1) Inhibition rate (%): Inhibition rate %=[(mean value in positive control well−value in sample well)/(mean value in positive control well−mean value in negative control well)]×100, wherein the positive control well was a reaction well without a compound […], and the negative control well was a reaction wells without an enzyme.
(§1) 2) Curve fitting: Log(inhibitor) vs. response—Variable slope (four parameters) in GraphPad Prism 6 was used for fitting equation analysis of the compound concentration and the corresponding inhibition rate, and the curve was fitted to obtain the IC50 values of the compounds.

The next data set deals with FGFR2 (Homo sapiens (Human), UniProt P21802). Put plainly: TR-FRET kinase inhibition assay, FGFR2. It is filed as biochemical. The following applies: ATP Km concentration (30 μM). How it is done:
(§2) To measure the IC50 values of the compounds against FGFR1, FGFR2, FGFR3, FGFR4, and FGFR2 V564F at ATP Km concentrations by TR-FRET method.
(§3) TR-FRET (time-resolved fluorescence resonance energy transfer) method was used to detect the inhibitory activity of the compounds on FGFR1, FGFR2, FGFR3, FGFR4, and FGFR2 V564F kinase region fragments. The highest detection concentration of the compounds in 5 kinase experiments was 1000 nM, which was diluted in 3 folds, with a total of 11 concentrations (1000 nM to 0.017 nM). A kinase buffer (50 mM HEPES pH 7.5, 1 mM EGTA, 10 mM MgCl2, 2 mM DTT, and 0.01% Tween-20) was used to prepare 4× enzyme solution, 4× compound solutions diluted in gradient, and a 2×ATP/Peptide substrate solution. To a 384-well plate, 2.5 μL of enzyme solution and 2.5 μL of diluted […] compound solution were added, and 5 μL of 2×ATP/Peptide substrate solution was then added. After reacting at room temperature for 60 minutes for FGFR1, FGFR2, FGFR3, and FGFR2 V564F kinases, and 120 minutes for FGFR4 kinase, 10 μL of a 2× termination and detection mixed liquid prepared with 1×LANCE detection buffer with an EDTA concentration of 20 mM and a Europium-anti-phosphotyrosine (PT66) concentration of 2 nM was added to each well of the plate. After reacting at room temperature for 60 minutes for FGFR1, FGFR2, FGFR3, and FGFR4, and 30 minutes for FGFR2 V564F, the fluorescence signal value in each well of the plate was measured by a microplate reader.
(§4) 1) Inhibition rate (%): Calculation was performed on the raw data (665 nm/620 nm reading ratio) according to the following formula to obtain the inhibition rate. Inhibition rate %=[(mean value in positive control well−value in sample well)/(mean value in positive control well−mean value in negative control well)]×100, wherein the positive control well was a reaction well without a compound […], and the negative control well was a reaction wells without an enzyme.
as §1
Background: In TR-FRET formats the signal depends on donor and acceptor labels being close together.

In another data set the target is FGFR1 (Homo sapiens (Human), UniProt P11362). The experiment in a line: TR-FRET kinase inhibition assay, FGFR1. The data set is classed as biochemical. Particulars: ATP Km concentration (30 μM). How it is done:
as §2, §3, §4, §1

The next data set deals with FGFR2 V564F (Homo sapiens (Human), UniProt P21802, V564F). The experiment in a line: TR-FRET kinase inhibition assay, FGFR2 V564F. It is filed as biochemical. The following applies: ATP Km concentration (20 μM). How it is done: as §2, §3, §4, §1
FGFR2 V564F, sequence (P21802 481-770 V564F): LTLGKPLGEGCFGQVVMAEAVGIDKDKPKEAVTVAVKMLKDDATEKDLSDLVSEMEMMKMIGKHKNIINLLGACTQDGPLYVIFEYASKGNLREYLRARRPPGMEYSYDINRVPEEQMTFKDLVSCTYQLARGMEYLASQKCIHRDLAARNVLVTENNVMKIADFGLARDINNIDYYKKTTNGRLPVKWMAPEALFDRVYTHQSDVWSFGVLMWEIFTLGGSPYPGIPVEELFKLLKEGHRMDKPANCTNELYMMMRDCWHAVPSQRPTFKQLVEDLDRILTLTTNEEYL
A short description of data set [2]: Pharmacokinetic experiment in SD rats after oral administration. It is filed as in vivo. Particulars: 5 mg/kg, plasma. How it is done: To study the pharmacokinetic behavior of the compounds of the present invention in the rat body (plasma) after oral administration at a dose of 5 mg/kg using SD rats as test animals.
3 SD rats/group, male, from Shanghai Jiesijie Experimental Animal Co., Ltd., animal production license number (SCXK (Shanghai) 2013-0006 N0.311620400001794).
PO, 10% solutol HS15-0.5% CMC-Na was dissolved by ultrasound and prepared into a clear solution or homogeneous suspension.
3 SD rats/group, male; p.o. respectively at a dose of 5 mg/kg and an administration volume of 10 mL/kg after the […] were fasted overnight.
After oral administration to rats, at 0.25, 0.5, 1, 2, 4, 6, 8 and 24 hours, 0.2 mL of blood was collected from the jugular vein, placed in an EDTA-K2 test tube, centrifuged at 6000 rpm for 6 min at 4° C. to separate the plasma, which was stored at −80° C.
1) 100 μL of acetonitrile was added to 20 μL of plasma sample for pelleting, and it was mixed and centrifuged at 3500×g for 5-20 min.
2) The treated supernatant solution was taken and subjected to LC/MS/MS to analyze the concentrations of the test compounds. LC/MS/MS analysis instrument: AB Sciex API 4000 Qtrap.
• Liquid phase conditions: Shimadzu LC-20AD pump • Chromatographic column: Waters Xbridge C18 5 μm, 4.6×50 mm mobile phase: liquid A was 0.1% aqueous formic acid solution, and liquid B was methanol • Flow rate: 1.0 mL/min • Elution time: 0-4.0 min, the eluent was as follows: […]

FGFR2, sequence (P21802 481-770): as the sequence (P21802 481-770 V564F) above, with F84V counted along it
FGFR1, sequence (P11362 478-767): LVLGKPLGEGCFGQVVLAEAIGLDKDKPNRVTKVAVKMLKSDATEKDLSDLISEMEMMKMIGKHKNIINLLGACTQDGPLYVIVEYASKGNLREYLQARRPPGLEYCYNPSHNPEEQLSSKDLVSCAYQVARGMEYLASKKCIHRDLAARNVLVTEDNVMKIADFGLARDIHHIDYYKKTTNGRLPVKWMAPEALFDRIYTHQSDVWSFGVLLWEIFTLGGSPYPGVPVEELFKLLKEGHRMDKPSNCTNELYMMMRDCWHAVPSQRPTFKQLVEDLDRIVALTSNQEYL

What is called IC50 is the concentration at which inhibition is half-maximal. In the case of `C=CC(=O)N1CC[C@H](n2nc(C#Cc3cc4ncn(C5CC5)c4cc3Cl)c3c(N)ncc(C(=O)C4CC4)c32)C1` [Example 46, (S)-1-(3-(4-amino-3-((6-chloro-1-cyclopropyl-1H-benzo[d]imidazol-5-yl)ethynyl)-7-(cyclopropanecarbonyl)-1H-pyrazolo[4,3-c]pyridin-1-yl)pyrrolidin-1-yl)prop-2-en-1-one], the concentration for half-maximal inhibition (IC50) came to 0.2 nM in data set [1], 3.5 nM on FGFR2, 5.2 nM against FGFR1 and 1.1 nM against FGFR2 V564F.
In the case of `C=CC(=O)N1CC[C@H](n2nc(C#Cc3ccc4ccnn4c3)c3c(N)ncc(C(=O)C4CC4)c32)C1` [Example 73, (S)-1-(3-(4-amino-7-(cyclopropanecarbonyl)-3-(pyrazolo[1,5-a]pyridine-6-ethynylene)-1H-pyrazolo[4,3-c]pyridin-1-yl)pyrrolidine-1-methyl)prop-2-en-1-one], the IC50 was 0.7 nM against FGFR2, 2.3 nM at FGFR1 and 0.9 nM at FGFR2 V564F.
As to `C=CC(=O)N1CC[C@H](n2nc(C#Cc3cc4nc(C)n(C5CC5)c4cc3F)c3c(N)ncc(C(C)=O)c32)C1` [Example 55, (S)-1-(3-(7-acetyl-4-amino-3-((1-cyclopropyl-6-fluoro-2-methyl-1H-benzo[d]imidazol-5-yl)ethynyl)-1H-pyrazolo[4,3-c]pyridin-1-yl)pyrrolidin-1-yl)prop-2-en-1-one], the IC50 in data set [1] is 2.2 nM; on FGFR2, 2.8 nM; against FGFR1 it was 4.4 nM; on FGFR2 V564F, 1 nM.
The matching figures for `C=CC(=O)N1CC[C@H](n2nc(C#Cc3c(F)cc4c(ncn4C)c3F)c3c(N)ncc(C(C)=O)c32)C1` [Example 31, (S)-1-(3-(7-acetyl-4-amino-3-((4,6-difluoro-1-methyl-1H-benzo[d]imidazol-5-yl)ethynyl)-1H-pyrazolo[4,3-c]pyridin-1-yl)pyrrolidin-1-yl)prop-2-en-1-one]: 1.4 nM, 1.2 nM, 3.5 nM and 0.8 nM.
As to `[2H]C([2H])([2H])n1cnc2cc(C#Cc3nn([C@H]4CCN(C(=O)C=C)C4)c4c(-c5nccs5)cnc(N)c34)c(F)cc21` [Example 25, (S)-1-(3-(4-amino-3-((6-fluoro-1-(methyl-d3)-1Hbenzo[d]imidazol-5-yl)ethynyl)-7-(thiazol-2-yl)-1Hpyrazolo[4,3-c]pyridin-1-yl)pyrrolidin-1-yl)prop-2-en-1-one], the IC50 on FGFR2 turned out to be 1.5 nM; on FGFR1, 5.7 nM; against FGFR2 V564F, 0.6 nM.
What is called MRT is a mean duration of stay, worked out from the concentration-time curve. On to `C=CC(=O)N1CC[C@H](n2nc(C#Cc3cc4ncn(C5CC5)c4cc3F)c3c(N)ncc(C(=O)CC)c32)C1` [Example 48, (S)-1-(3-(4-amino-3-((1-cyclopropyl-6-fluoro-1H-benzo[d]imidazol-5-yl)ethynyl)-7-propionyl-1H-pyrazolo[4,3-c]pyridin-1-yl)pyrrolidin-1-yl)prop-2-en-1-one], for which the IC50 in data set [1] is 1.4 nM; against FGFR2 it was 1.7 nM; against FGFR2 V564F, 0.8 nM. Also, the AUC(0-t) in data set [2] (male, Sprague-Dawley (SD), rat, po, read-out: Area under the curve AUC0-t) stood at 4120 ng·h/mL. Also, in data set [2] (male, Sprague-Dawley (SD), rat, po, read-out: Area under the curve AUC0-∞), the AUC(0-inf) came to 4150 ng·h/mL. Also, the half-life in data set [2] (male, Sprague-Dawley (SD), rat, po, read-out: Half-life t1/2 (converted)) was 3.9 h. In addition, the MRT in data set [2] (male, Sprague-Dawley (SD), rat, po, read-out: Mean residence time MRT) is 4.2 h. The Cmax in data set [2] (male, Sprague-Dawley (SD), rat, po, read-out: Plasma concentration Cmax) was 795 ng/mL. In data set [2] (p.o.), the Time to peak tmax is 2 h.
As to `C=CC(=O)N1CC[C@H](n2nc(C#Cc3ccc4c(c3)ncn4CC)c3c(N)ncc(C(=O)CC)c32)C1` [Example 57, (S)-1-(3-(4-amino-3-((1-ethyl-1H-benzo[d]imidazol-5-yl)ethynyl)-7-propionyl-1H-pyrazolo[4,3-c]pyridin-1-yl)pyrrolidin-1-yl)prop-2-en-1-one], the IC50 amounted to 2.5 nM in data set [1], 1.3 nM at FGFR2, 5.6 nM on FGFR1 and 0.5 nM against FGFR2 V564F.
With `C=CC(=O)N1CC[C@H](n2nc(C#Cc3ccc4c(c3)ncn4C)c3c(N)ncc(C(=O)C(C)C)c32)C1` [Example 66], the IC50 in data set [1] was determined as 2.8 nM; against FGFR2, 2.9 nM; at FGFR1, 6.8 nM; against FGFR2 V564F, 0.8 nM.
Regarding `C=CC(=O)N1CC[C@H](n2nc(C#Cc3cc4ncn(C5CC5)c4cc3F)c3c(N)ncc(-c4nccs4)c32)C1` [Example 34, (S)-1-(3-(4-amino-3-((1-cyclopropyl-6-fluoro-1H-benzo[d]imidazol-5-yl)ethynyl)-7-(thiazol-2-yl)-1H-pyrazolo[4,3-c]pyridin-1-yl)pyrrolidin-1-yl)prop-2-en-1-one], the IC50 is 2.9 nM in data set [1], 3.2 nM at FGFR2, 6.6 nM at FGFR1 and 2.2 nM on FGFR2 V564F.
For `C=CC(=O)N1CC[C@H](n2nc(C#Cc3cc4ncn(C5CC5)c4cc3Cl)c3c(N)ncc(C(C)=O)c32)C1` [Example 44, (S)-1-(3-(7-acetyl-4-amino-3-((6-chloro-1-cyclopropyl-1H-benzo[d]imidazol-5-yl)ethynyl)-1H-pyrazolo[4,3-c]pyridin-1-yl)pyrrolidin-1-yl)prop-2-en-1-one] the same measures were 0.8 nM, 2.2 nM, 4.4 nM and 0.4 nM.
On to `C=CC(=O)N1CC[C@H](n2nc(C#Cc3c(F)cc4c(ncn4C)c3F)c3c(N)ncc(-c4cscn4)c32)C1` [Example 29, (S)-1-(3-(4-amino-3-((4,6-difluoro-1-methyl-1H-benzo[d]imidazol-5-yl)ethynyl)-7-(thiazol-4-yl)-1H-pyrazolo[4,3-c]pyridin-1-yl)pyrrolidin-1-yl)prop-2-en-1-one], for which the IC50 against FGFR2 came to 1.5 nM; at FGFR1 it was 7.1 nM; at FGFR2 V564F, 3.6 nM.
For `C=CC(=O)N1CC[C@H](n2nc(C#Cc3cc4ncn(CC)c4cc3F)c3c(N)ncc(-c4nccs4)c32)C1` [Example 22, (S)-1-(3-(4-amino-3-((1-ethyl-6-fluoro-1H-benzo[d]imidazol-5-yl)ethynyl)-7-(thiazol-2-yl)-1H-pyrazolo[4,3-c]pyridin-1-yl)pyrrolidin-1-yl)prop-2-en-1-one] the same measures were 1.6 nM, 6.5 nM and 0.8 nM.

Values taken from US20250152564A1, “PROPYLENE KETONE-CONTAINING BIOINHIBITOR, PREPARATION METHOD THEREFOR, AND USE THEREOF” (SHANGHAI HANSOH BIOMEDICAL CO., LTD., priority 2022, published 2025).
